Laboratory results reported in patent US20260191191A1, “METHOD FOR INACTIVATING ENVELOPED VIRUSES” (Merck Patent GmbH, priority 2022, published 2026).
Entries after “also recorded” stand apart in the source; their conditions may differ. Where two headings read alike, the source gives them in different places.

How the values were obtained:
[1] = system: Bovine viral diarrheal virus (BVDV); assay type: cell-based
[2] = system: Xenotropic murine leukemia virus (XMuLV); assay type: cell-based
Pseudorabies virus (PRV) = assay type: cell-based; conditions: CHO clarified harvest, 15° C., within 5 min
[3] = Critical micelle concentration (CMC) determination by static surface tension

In the case of C11-C15 secondary alcohol ethoxylate, the “BVDV inactivation LRV” value [1] is reported as at least 4.0, the “SAE inactivation efficacy higher than Triton X-100 by” value [2] is reported as ~ 1.0 log and the “XMuLV inactivation efficacy compared with Triton X-100” value [2] is reported as “slightly higher efficacy than Triton™ X-100; also recorded: comparable inactivation with Triton™ X-100; also recorded: lower than that achieved with 1.0% Triton™ X-100, until a longer incubation time has elapsed; also recorded: comparable to that achieved with Triton™ X-100; also recorded: the same virus inactivation efficacy as Triton™ X-100”. For the same substance, the “XMuLV inactivation efficiency compared with Triton X-100” value [2] was “slightly higher than that achieved with Triton™ X-100 detergent”, the “time in which most XMuLV inactivation occurred” value [2] was at most 5 min and the “PRV inactivation LRV” value (Pseudorabies virus (PRV); 0.5% detergent) was ~ 6.5. The “PRV inactivation LRV” value (Pseudorabies virus (PRV); 1.0% detergent) was at least 5.0, the “hemolysis compared with Triton X-100” value (Fresh human whole blood) was “comparable to Triton™ X-100” and the “critical micelle concentration (CMC)” value [3] was 49 mg/L.
